We go through ten compounds from publication PMC4821856, “Novel Anti-Campylobacter Compounds Identified Using High Throughput Screening of a Pre-selected Enriched Small Molecules Library” (Frontiers in Microbiology, 2016).

The test system of the experiment is C. jejuni 81-176 in Caco-2 cells. The experiment is described as follows: Intracellular survival / in vitro clearance of C. jejuni in infected Caco-2 cells. It counts as cell-based, Campylobacter jejuni. Particulars: for minimal effective concentration: Campylobacter jejuni, C. jejuni 81–176 infected Caco-2 cells, compounds at 200, 100, 50, 25 μM for 24 h, read-out: In vitro Concentration (in vitro clearance ability); for Intracellular Campylobacter load (below detection limit): 50 μM, 24 h. Here is the method:
To test the effect of selected compounds on C. jejuni in vitro clearance, Caco-2 cells were infected with C. jejuni 81-176 strain and a 96 well intracellular survival assay was performed as described previously (Malde et al., [2014]; Pina-Mimbela et al., [2015]). Briefly, a mid-log phase C. jejuni 81–176 culture was pelleted by centrifuging at 9500 × g for 10 min and washed three times with Dulbecco Phosphate Buffer Saline (DPBS, Gibco) containing 1% (v/v) FBS and adjusted to the desired OD600. Approximately 1.4 × 10^5 Caco-2 cells/well were seeded in 100 μL of media containing varying concentration of compounds into each well of a 96 well plate and subsequently infected with C. jejuni at multiplicity of infection (MOI) 100 in duplicate wells. To determine clearance, Caco-2 cells were incubated with bacteria for 3 h and treated with gentamicin (150 μg/mL) and incubated for additional 2 h. Cells were washed three times with DPBS with no calcium or magnesium and incubated with 1 μL of diluted compounds (200, 100, 50, and 25 μM) for 24 h. Infected cells were washed twice with MEM, lysed with 0.1% (v/v) Triton-X 100. Subsequently, 100 μL of an aliquot from each well was 10-fold serially diluted in MEM and plated on MH agar in duplicate to determine CFUs. The appropriate controls included; (i) infected Caco-2 cell treated with kanamycin or chloramphenicol, (ii) infected Caco-2 cells treated with 1 μL of 100% Trition-X, (iii) infected Caco-2 treated with 1 μL of 100% DMSO. Two independent experiments were carried with duplicate treatments in each experiment and the average CFU value was used to plot the graph.
The in vitro clearance ability and cytotoxicity of compounds were analyzed using one-way analysis of variance with mean separation by a least significant difference test at 5% level of significance in GraphPad Prism version 6 software.

A value given as a limit tells only on which side of the number the result lay.

As to `O=S(=O)(Nc1cccc(C(F)(F)F)c1)c1ccc(Br)cc1` [Comp 1], the minimal effective concentration came out at 200 µM. Same read-out and setting: the figure for `Clc1ccc(N2CCN(Cc3ccsc3)CC2)cc1` [Comp 4] is over 200 µM; for `Cc1ccc(N2CCN(C/C=C/c3ccccc3)CC2)cc1` [Comp 5] it is over 200 µM. `O=c1c(Cl)c(Cl)cnn1-c1ccccc1Cl` [Comp 7]: the “Intracellular Campylobacter load (below detection limit)” value is recorded as at most 10 bacteria/mL and the minimal effective concentration turned out to be 25 µM. Moreover, the “Intracellular Campylobacter clearing ability” value (25 μM (eight-fold dilution)) was “complete intracellular Campylobacter clearing ability”. Consider `Cc1c(C(C)NCc2cccc(OC3CCCC3)c2)cnn1-c1ccccc1` (centres unmarked) [Comp 10], for which the “Intracellular Campylobacter load (below detection limit)” value was at most 10 bacteria/mL and the minimal effective concentration is 50 µM. In the case of `COc1ccc(CNCc2ccc(Cl)s2)cc1OCC(O)CN1CCCC1` (centres unmarked) [Comp 12], the minimal effective concentration was 100 µM.

With `CN(Cc1cccc2cnccc12)CC1CCCN(CCc2ccc(F)cc2)C1` (centres unmarked) [Comp 13], the minimal effective concentration is over 200 µM. For the same compound, for the setting “infected Caco-2 cells, overall”, the “Intracellular C. jejuni clearance (in vitro effect)” value was “lacked in vitro effect”. `CN(CC(O)COc1ccccc1CNC1(c2ccccc2)CC1)C1CCCCC1` (centres unmarked) [Comp 17]: the minimal effective concentration was over 200 µM. As for `CN(Cc1ccccc1)CC1CCCN(CCc2ccc(F)cc2)C1` (centres unmarked) [Comp 18], the minimal effective concentration stood at 100 µM.

Take `CC(=O)Nc1ccc(CN(C)CC2CCCN(CCc3cccc(C(F)(F)F)c3)C2)cc1` (centres unmarked) [Comp 22]: the minimal effective concentration was 100 µM.
